Literature values, collected in patent publication US20150030676A1, “STABLIZED MODIFIED RELEASE FOLIC ACID DERIVATIVE COMPOSITION, ITS THERAPEUTIC USE AND METHODS OF MANUFACTURE” (APTALIS PHARMATECH, INC., priority 2013, published 2015).

Conditions: in vivo

6(S)-5-methyltetrahydrofolate [L-methylfolate]
plasma elimination half life: about 3 hours
